In US20250352548A1, “BTK Reducing Molecules for Treatment of Cancers and Immune System Disorders” (Accutar Biotechnology, Inc., priority 2022, published 2025):

What was measured:
[1] = tested on: engineered REC-1 PLCγ2^L845F cells; assay: Cancer cell growth in vitro, CellTiter-Glo, 6 days; format: cell-based; conditions: 6 days after administration, compared to Ibrutinib (FIG. 1C)
Method: (§1) Parental REC1 cells were obtained from the American Type Culture Collection (ATCC). PLCγ2 gene in REC-1 cell line was edited using the CRISPR-Cas9 technology to create a S to Y point mutation at residue 707 of PLCγ2 protein, or L to F point mutation at residue 845 of PLCγ2 protein. For gene editing, first, gRNA complex of PLCγ2 S707Y or PLCγ2 L845F was prepared with Alt-R CRISPR-Cas9 tracrRNA and crRNA PLCγ2 S707Y (5′-[…]-3′) or PLCγ2 L845F (5′-[…]-3′) (IDT-Integrated DNA Technologies), and then ribonucleoprotein (RNP) complex of PLCγ2 S707Y or PLCγ2 L845F was prepared with respective gRNA complex and Alt-R S.p. Cas9 Nuclease V3 (IDT-Integrated DNA Technologies). […]
(§2) Parental REC1 cells (ATCC), engineered REC1 PLCγ2^S707Y cells, or engineered REC-1 PLCγ2^L845F cells, were plated in 96-well plates at 8,000 cells/well in 90 μl of RPMI1640 growth medium containing 10% heat-inactivated FBS and 1× Penicillin Streptomycin, and then incubated at 37° C. overnight. […] The plates were then incubated at room temperature for 10 minutes and luminescence was recorded by EnSpire plate reader (PerkinElmer).

[2] = tested on: engineered REC1 PLCγ2^S707Y cells; assay: Cancer cell growth in vitro, CellTiter-Glo, 6 days; format: cell-based; conditions: 6 days after administration, compared to Ibrutinib (FIG. 1B)
Method: as §1, §2

[3] = tested on: engineered REC1 PLCγ2^S707Y knock-in tumors; assay: Mouse xenograft tumor model, REC1 PLCγ2^S707Y knock-in; format: in vivo; conditions: for TGI: 14 days after administration, S707Y tumors
Method: (§3) Parental REC1 cells (ATCC), engineered REC1 PLCγ2^S707Y cells, and engineered REC-1 PLCγ2^L845F cells, as described in Example 1, were maintained in vitro as monolayer culture in RPMI1640 medium supplemented with 10% fetal bovine serum and 1× Penicillin Streptomycin at 37° C. in an atmosphere of 5% CO2 in air. The tumor cells were routinely subcultured twice weekly. The cells growing in an exponential growth phase were harvested and counted for tumor inoculation. Each mouse was inoculated subcutaneously at the armpit of the right flank with 5×10^6 tumor cells in 0.1 mL of PBS mixed with 0.1 mL matrigel for tumor development. Treatment of the BTK degrader of Formula I-D (1.5 mg/kg, 3 mg/kg, 6 mg/kg, or 15 mg/kg, PO), Ibrutinib (25 mg/kg, PO), or vehicle (PO) started when the average tumor size reached approximately 100 mm^3. Mice were assigned into groups using an Excel-based randomization software performing stratified randomization based upon their tumor volumes. Tumor sizes were measured 3 times weekly in two dimensions using a caliper, and the volume was expressed in mm^3 using the formula: V=0.5 a×b^2 where a and b are the long and short diameters of the tumor, respectively. Tumor growth inhibition (TGI) was calculated for each group using the formula: TGI (%)=[1−(Ti−T0)/(Vi−V0)]×100; Ti is the average tumor volume of a treatment group on a given day, T0 is the average tumor volume of the treatment group on the first day of treatment, Vi is the average tumor volume of the vehicle control group on the same day with Ti, and V0 is the average tumor volume of the vehicle group on the first day of treatment.

[4] = tested on: engineered REC1 PLCγ2^L845F knock-in tumors; assay: Mouse xenograft tumor model, REC1 PLCγ2^L845F knock-in; format: in vivo; conditions: for TGI: 14 days after administration, L845F tumors
Method: as §3

In the case of COc1ccc(F)cc1C(=O)NCc1ccc(-c2nn(-c3ccc(N4CCC(CN5CCN(c6ccc7c(c6)CN(C6CCC(=O)NC6=O)C7=O)CC5)CC4)c(F)c3)c3ncnc(N)c23)cc1 (stereo not drawn) [Formula I-D], the cell growth inhibition [1] is reported as “significantly inhibited cell growth”, the cell growth inhibition [2] is reported as “significantly inhibited cell growth” and the TGI ([3]; 3 mg/kg PO) is reported as 61%. The TGI ([3]; 6 mg/kg PO) was 74%, the TGI ([3]; 15 mg/kg PO) was 86% and the “tumor growth inhibition vs Ibrutinib” value ([3]; REC1 PLCγ2^S707Y knock-in mice, PO, 14 days after administration (FIG. 2B)) was “significantly inhibited tumor growth”. The TGI ([4]; 3 mg/kg PO) was 63%, the TGI ([4]; 6 mg/kg PO) was 81% and the TGI ([4]; 15 mg/kg PO) was 88%. The “tumor growth inhibition vs Ibrutinib” value ([4]; REC-1 PLCγ2^L845F knock-in mice, PO, 14 days after administration (FIG. 2C)) was “significantly inhibited tumor growth”.

Compound C=CC(=O)N1CCC[C@@H](n2nc(-c3ccc(Oc4ccccc4)cc3)c3c(N)ncnc32)C1 [Ibrutinib, reference compound] has a TGI ([3]; Ibrutinib 25 mg/kg PO) of 5% and a TGI ([4]; Ibrutinib 25 mg/kg PO) of 12%.
